The source of these data is patent US10106778B2, “Selective targeting of cancer stem cells” (Whitehead Institute for Biomedical Research, priority 2012, dated 2018).

Each structure is given as a SMILES string.

Holding throughout (format): cell-based, human
Test [1] has as its system NAMEC-Tom-Ras and HMLE-GFP-Ras cells. Put plainly: Co-mixed NAMEC-Tom-Ras (CSC-enriched) and HMLE-GFP-Ras (CSC-depleted) cells, kinase inhibition, FACS. As to conditions: dose response, co-mixed cells. On the procedure: (§1) Kinase inhibitors and other chemical compounds were obtained from various sources listed below. These were dissolved or diluted in DMSO. To set up the screen, 75,000 NAMEC-Tom and 15,000 HMLE-GFP cells were seeded into each well of a 6-well tissue culture plate. The following day, spent media was replaced with 3 ml of fresh media. Inhibitors were added to achieve the desired range of concentrations. For control treatment, DMSO was added. Fresh media containing inhibitors were replaced daily during the six day period. For analysis, cells were trypsinized with 1 ml 0.15% trypsin, diluted with 1 ml serum-containing media and fixed with 1 ml of 4% paraformaldehyde. FACS analysis was performed to analyze the proportion of surviving cells relative to DMSO-treated control for NAMEC-Tom or HMLE-GFP cells. To test the effects of these inhibitors on CSCs and non-CSCs, NAMEC-Ras-Tom and […] were used in similar co-mixed experiments.
as §1, with “experiments. To assess the fraction of cells undergoing apoptosis, cells were exposure to agents for three days without fresh media and then analyzed with Annexin V-APC (BD Biosciences).” for “experiments.”
Having determined that NAMEC-Ras cells were enriched for CSCs, we mixed NAMEC-Ras cells labeled with tdTomato (NAMEC-Tom-Ras) and HMLE-Ras cells labeled with GFP (HMLE-GFP-Ras) and re-tested the effects of kinase inhibition as described above. […] In addition, these NAMEC-Tom-Ras cells were more resistant to paclitaxel (11.3 fold) and staurosporine (32.8 fold) than the corresponding HMLE-GFP-Ras cells used as controls (FIG. 3C).

The subject of test [2] is p-PKCα^S497 and p-PKCα^T638. Put plainly: Western blot of PKCα phosphorylation in NAMECs. On the procedure: (§2) To obtain protein extracts, cells were scraped from culture dishes in chilled PBS, centrifuged at 450×g for 4 min at 4° C., washed again in PBS, and incubated for 20 min in ice cold lysis buffer containing freshly added protease inhibitors (0.5 mM phenylmethylsulfonyl fluoride, 10 μg/ml leupeptin, 2 μg/ml aprotonin). Lysates were cleared by centrifugation at 12,100×g, 4° C. for 10 min and the supernatant was snap frozen in liquid nitrogen. Protein concentrations were determined using Bradford Dye (Bio-Rad). 30 μg total protein was separated by SDS-PAGE on NuPAge gels (Invitrogen), and transferred to Hybond-P PVDF membrane (GE Healthcare). The membrane was probed with specific primary antibodies and antibody-protein complex detected by HRP-conjugated antibodies and ECL-Plus (Amersham Biosciences).
We subsequently sought to determine whether PKCα activation was directly dependent upon PDGFR-PLCγ. Exposure of NAMECs to a PLCγ inhibitor (U73122) reduced active p-PKCα^S497 and p-PKCα^T638 by 1.3 and 3.1-fold respectively within 30 min, and 6.3 and 4.2-fold respectively by 60 min (FIG. 13C); total PKCα level was unchanged (FIG. 13C). The inhibition of PDGFR in NAMECs, similarly, led to a loss of PKCα phosphorylation (p-PKCα^S497: 2.8 fold, p-PKCα^T638: 5.9 fold), as illustrated once again by the loss of active p-PKCα^S497 and p-PKCα^T638 within 30 min, while total PKCα remained constant (FIG. 13D).
For orientation: A western blot detects proteins with antibodies after separation by electrophoresis.

The next test concerns p-FRA1^S265. Put plainly: Western blot of FRA1 phosphorylation in NAMECs. The conditions noted are these: applied to NAMECs for 30 min. On the procedure: as §2
FRA1 is a member of the Fos family of transcription factors, which is also comprised of c-Fos, FosB and Fra2. Together with the Jun family of transcription factors composed of c-Jun, JunB and JunD, individual members of the Fos and Jun family associate with one another to form heterodimeric activator protein-1 (AP-1) complexes that bind and transcriptionally regulate target gene expression when phosphorylated (Eferl and Wagner, 2003).
We assessed whether the observed increased p-FRA1 activity in the mesenchymal cells could be further augmented by elevated ERK signaling during EMT. Accordingly, inhibition of ERK1/2 phosphorylation with a MEK inhibitor was able to decrease p-FRA1^S265 levels by 65% but not the levels of total FRA1 or p-c-Jun (FIG. 5G), confirming that ERK1/2 signaling promoted p-FRA1 activity.

Test [3] has as its system p-B-Raf, p-c-Raf, p-MEK1/2 and p-ERK1/2. Put plainly: Western blot of MAPK/ERK signaling in NAMECs. As to conditions: 30 min. On the procedure: as §2
We assessed whether mesenchymal cells contained higher Ras expression or activated Ras. […] We assessed whether enhanced ERK signaling in the mesenchymal cell state was primarily mediated through the activated PDGFR and PKCα signaling cascade, rather than through activation via a Ras-Raf pathway. To test this, we exposed NAMECs to PKCα-specific inhibitors for 30 min. This reduced p-B-Raf and p-c-Raf expression, and led to the loss of p-MEK1/2 and p-ERK1/2 (FIG. 5F). […] Therefore, the enhanced activity of ERK signaling during EMT was, in part, conferred by signaling through PDGFR and PKCα.

The next test deals with p-PLCγ1^Y783. Nature of the test: Western blot of PLCγ1 phosphorylation in NAMECs. As to conditions: 5 μM, within 30 min. How it is done:
as §2
(§3) Protein levels of both phospholipase Cγ1 and 2 (PLCγ1 and PLCγ2), which transduce signals from PDGFRα/β to PKCα, were also elevated in these cells by an average of 4.57 and 2.38-fold, respectively (FIG. 4E). To test whether PLCγ is being activated by PDGFR through phosphorylation, NAMECs were treated with PDGFR inhibitors.

The subject of a further test is p-PLCγ2^Y1217. Nature of the test: Western blot of PLCγ2 phosphorylation in NAMECs. The conditions noted are these: 5 μM, within 30 min. On the procedure: as §2, §3

Take `COc1cc2c(cc1OC)-c1[nH]nc(Nc3cccc(F)c3)c1C2` [PDGFR Inh IV]: the “which cell type is more sensitive / selected against” value in test [1] was “NAMEC-Ras-Tom cells were more sensitive”. Further, the “effect on PKCα phosphorylation” value in test [2] is “reduced phosphorylation of PKCα”. For the same compound, the “effect on phosphorylation of FRA1” value in the test on p-FRA1^S265 was “blocked the phosphorylation of FRA1”. The “effect on phospho-proteins of ERK signaling” value in test [3] was “downregulation of B-Raf and C-Raf phosphorylation, and dampening ERK signaling”.

Consider `COc1cc2ncnc(N3CCN(C(=O)Nc4ccc(Oc5ccccc5)cc4)CC3)c2cc1OC` [PDGFR Inh III], for which the “which cell type is more sensitive / selected against” value in test [1] is on record as “NAMEC-Ras-Tom cells were more sensitive”. The “effect on p-PLCγ1^Y783” value in the test with p-PLCγ1^Y783 is on record as “reduced”. In addition, the “effect on p-PLCγ2^Y1217” value in the test with p-PLCγ2^Y1217 is recorded as “reduced”. Further, the “effect on PKCα phosphorylation” value in test [2] is given as “reduced phosphorylation of PKCα”. Also, the “effect on phosphorylation of FRA1” value in the test with p-FRA1^S265 was “blocked the phosphorylation of FRA1”. The “effect on phospho-proteins of ERK signaling” value in test [3] was “downregulation of B-Raf and C-Raf phosphorylation, and dampening ERK signaling”.
